Values of other authors as cited in patent publication US6825231B2, “Substituted norbornylamino derivatives, processes for their preparation, their use as medicaments or diagnostics, and a medicament comprising them” (Aventis Pharma Deutschland GmbH, priority 1999, dated 2004).

Molecular target: NHE3 (Oryctolagus cuniculus, UniProt P26432)
Details: literature: Donowitz et al. Am. J. Physiol. 276: C136-C144; cited from earlier work

Sequence of NHE3 (P26432 30-832): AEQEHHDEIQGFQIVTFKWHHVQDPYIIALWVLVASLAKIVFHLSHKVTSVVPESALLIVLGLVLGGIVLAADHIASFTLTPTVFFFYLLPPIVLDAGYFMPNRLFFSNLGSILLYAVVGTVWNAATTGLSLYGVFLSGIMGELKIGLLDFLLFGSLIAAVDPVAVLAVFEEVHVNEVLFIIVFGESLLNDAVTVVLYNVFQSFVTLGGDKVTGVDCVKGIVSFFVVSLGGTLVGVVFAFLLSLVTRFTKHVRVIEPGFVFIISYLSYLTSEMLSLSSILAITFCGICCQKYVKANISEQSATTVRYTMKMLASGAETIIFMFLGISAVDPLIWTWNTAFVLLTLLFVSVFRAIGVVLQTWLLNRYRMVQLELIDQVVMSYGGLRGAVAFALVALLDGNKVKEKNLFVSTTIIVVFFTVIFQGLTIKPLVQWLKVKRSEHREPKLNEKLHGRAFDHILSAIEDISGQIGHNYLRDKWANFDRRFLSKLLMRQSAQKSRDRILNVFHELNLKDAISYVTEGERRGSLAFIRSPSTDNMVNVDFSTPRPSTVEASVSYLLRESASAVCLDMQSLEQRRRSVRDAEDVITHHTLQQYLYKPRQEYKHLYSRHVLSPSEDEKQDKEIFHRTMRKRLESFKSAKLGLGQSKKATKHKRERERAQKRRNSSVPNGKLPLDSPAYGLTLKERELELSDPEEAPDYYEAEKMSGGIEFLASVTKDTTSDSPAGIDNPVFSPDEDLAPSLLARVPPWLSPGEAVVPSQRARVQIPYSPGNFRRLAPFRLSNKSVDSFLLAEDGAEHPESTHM

**Q.** Which “delay of NHE3 inhibitory activity” value does the source give for `CC(C)[C@@H](CC[C@@H](C)[C@H]1CC[C@H]2[C@@H]3[C@H](O)C[C@H]4C[C@@H](NCCCNCCCCN)CC[C@]4(C)[C@H]3CC[C@]12C)OS(=O)(=O)O` [squalamine] here?
**A.** activity seen after one hour
